Patent US20250230193A1, “CYCLIC COMPOUND HAVING SELECTIVE KRAS INHIBITORY EFFECT ON HRAS AND NRAS” (CHUGAI SEIYAKU KABUSHIKI KAISHA, priority 2022, published 2025)
Where a SMILES comes first, the peptide text is derived from it. Bridges are numbered along the chain shown (N, C = ends). [ ]: non-standard residue; d: D form. The star is where a group is joined. hPhe(3-Cl-4-CF3) = N[C@@H](CCc1ccc(C(F)(F)F)c(Cl)c1)C(=O)O; NPrPhe(4-CF3) = CCCN[C@@H](Cc1ccc(C(F)(F)F)cc1)C(=O)O; NMeGly(cPent) = CN[C@H](C(=O)O)C1CCCC1; NMeD = CN[C@@H](CC(=O)O)C(=O)O; NMeL = CN[C@@H](CC(C)C)C(=O)O; Morpholide = C1CN(*)CCO1; Ac5c = NC1(C(=O)O)CCCC1; NEtG = CCNCC(=O)O; Sar = CNCC(=O)O

What was measured:
[1] = target: GDP-bound NRAS wild-type protein (Homo sapiens, UniProt P01111); experiment: Binding to NRAS by surface plasmon resonance (SPR), Single Cycle Kinetics; details: for NRAS/KRAS (ratio of KD value with respect to NRAS to KD value with respect to KRAS) / NRAS/KRAS (ratio of KD value for NRAS to KD value for KRAS): GDP-bound NRAS wild-type vs GDP-bound KRAS wild-type
Chain of GDP-bound NRAS wild-type protein (P01111 whole entry): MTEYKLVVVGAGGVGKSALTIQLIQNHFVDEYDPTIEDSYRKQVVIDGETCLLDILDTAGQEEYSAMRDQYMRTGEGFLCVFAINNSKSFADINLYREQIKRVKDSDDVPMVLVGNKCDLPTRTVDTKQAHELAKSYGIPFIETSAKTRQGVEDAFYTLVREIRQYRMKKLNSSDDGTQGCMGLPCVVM

[2] = target: GDP-bound HRAS wild-type protein (Homo sapiens, UniProt P01112); experiment: Binding to HRAS by surface plasmon resonance (SPR), Single Cycle Kinetics; details: for HRAS/KRAS (ratio of KD value with respect to HRAS to KD value with respect to KRAS) / HRAS/KRAS (ratio of KD value for HRAS to KD value for KRAS): GDP-bound HRAS wild-type vs GDP-bound KRAS wild-type
Chain of GDP-bound HRAS wild-type protein (P01112 whole entry): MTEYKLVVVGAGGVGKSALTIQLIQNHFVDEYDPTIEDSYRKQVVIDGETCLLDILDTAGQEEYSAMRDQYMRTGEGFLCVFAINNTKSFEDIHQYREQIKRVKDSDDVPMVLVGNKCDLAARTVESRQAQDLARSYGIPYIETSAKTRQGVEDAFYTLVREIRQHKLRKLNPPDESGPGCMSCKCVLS

Structure (SMILES) | NRAS/KRAS (ratio of KD value with respect to NRAS to KD value with respect to KRAS) ([1]; SPR) | HRAS/KRAS (ratio of KD value with respect to HRAS to KD value with respect to KRAS) ([2]; SPR) | further results
CCC[C@H]1C(=O)N[C@@H]([C@@H](C)CC)C(=O)N(C)CC(=O)N(C)[C@H]2C/C=C\CCN(C2=O)[C@@H](CC2CCC(F)(F)CC2)C(=O)N(C)CC(=O)N[C@@H](CCc2ccc(C(F)(F)F)c(Cl)c2)C(=O)N2C[C@H](OCC)C[C@H]2C(=O)NC2(CC(C)(C)C2)C(=O)N(C)[C@@H](C(CC)CC)C(=O)N(C)[C@H](C(=O)N(C)C)CC(=O)N1C [PP2498] | A (a compound having 10 or more and less than 20 is denoted as A) | A (a compound having 10 or more and less than 20 is denoted as A) | 
CCCN1C(=O)[C@H](C2CCCC2)N(C)C(=O)C2(CCC2)NC(=O)[C@@H]2C[C@@H](OCC)CN2C(=O)[C@H](CCc2cc(F)c(C(F)(F)F)c(F)c2)NC(=O)CN(C)C(=O)[C@H](Cc2ccc(C(F)(F)F)cc2)N2CCCC[C@@H](C2=O)N(C)C(=O)CN(C)C(=O)[C@H]([C@@H](C)CC)NC(=O)[C@H](CC(C)C)N(C)C(=O)C[C@H]1C(=O)N1CCOCC1 [PP0649] |  |  | NRAS/KRAS (ratio of KD value with respect to GDP-bound NRAS wild-type protein to KD value with respect to KRAS) ([1]; SPR): C (A compound having a KD ratio of 0.1 or more and less than 3 is denoted as C); HRAS/KRAS (ratio of KD value with respect to GDP-bound HRAS wild-type protein to KD value with respect to KRAS) ([2]; SPR): B (a compound having 3 or more and less than 10 is denoted as B)
C#CC[C@H]1C(=O)N[C@@H]([C@@H](C)CC)C(=O)N(C)CC(=O)N(C)[C@H]2C/C=C\CCN(C2=O)[C@@H](Cc2ccc(C(F)(F)F)cc2)C(=O)N(C)CC(=O)N[C@@H](CCc2cc(F)c(C(F)(F)F)c(F)c2)C(=O)N2C[C@@H](C)C[C@H]2C(=O)NC2(CC(C)(C)C2)C(=O)N(C)[C@@H](C2CCCC2)C(=O)N(C)[C@H](C(=O)N(C)CCC)CC(=O)N1C [PP2076] | A (a compound having 10 or more and less than 20 is denoted as A) | A (a compound having 10 or more and less than 20 is denoted as A) | 
CCO[C@@H]1C[C@H]2C(=O)NC3(CC(C)(C)C3)C(=O)N(C)[C@@H](C(CC)CC)C(=O)N3CCC[C@@H]3CC(=O)N(C)[C@@H](CC3CC3)C(=O)N[C@@H]([C@@H](C)CC)C(=O)N(C)CC(=O)N(C)[C@H]3C/C=C\CCN(C3=O)[C@@H](Cc3ccc(C(F)(F)F)cc3)C(=O)N(C)CC(=O)N[C@@H](CCc3cc(F)c(C(F)(F)F)c(F)c3)C(=O)N2C1 [PP1610] |  |  | NRAS/KRAS (ratio of KD value for NRAS to KD value for KRAS) ([1]; SPR): A (a compound having 10 or more and less than 20 is denoted as A); HRAS/KRAS (ratio of KD value for HRAS to KD value for KRAS) ([2]; SPR): A (a compound having 10 or more and less than 20 is denoted as A)
CCO[C@@H]1C[C@H]2C(=O)NC3(CCC3)C(=O)N(C)[C@@H](C3CCCC3)C(=O)N(C)[C@H](C(=O)N(C)CC)CC(=O)N(C)[C@@H](CC3CCC3)C(=O)N[C@@H]([C@@H](C)CC)C(=O)N(C)CC(=O)N(C)[C@H]3C/C=C\CCN(C3=O)[C@@H](Cc3ccc(C(F)(F)F)cc3)C(=O)N(C)CC(=O)N[C@@H](CCc3ccc(C(F)(F)F)c(OC)c3)C(=O)N2C1 [PP2825] |  |  | NRAS/KRAS (ratio of KD value with respect to GDP-bound NRAS wild-type protein to KD value with respect to KRAS) ([1]; class symbols): A (a compound having 10 or more and less than 20 is denoted as A); HRAS/KRAS (ratio of KD value with respect to GDP-bound HRAS wild-type protein to KD value with respect to KRAS) ([2]; class symbols): B (a compound having 3 or more and less than 10 is denoted as B)
CCC[C@H]1C(=O)N[C@@H]([C@@H](C)CC)C(=O)N(C)CC(=O)N(C)[C@H]2C/C=C\CCN(C2=O)[C@@H](CC2CCC(F)(F)CC2)C(=O)N(C)CC(=O)N[C@@H](CCc2ccc(C(F)(F)F)c(OC)c2)C(=O)N2C[C@@H](C)C[C@H]2C(=O)N(C)C2(CCC2)C(=O)N(C)[C@@H](C2CCCC2)C(=O)N(C)[C@H](C(=O)N(C)C)CC(=O)N1C [PP2376] | A (a compound having 10 or more and less than 20 is denoted as A) | A (a compound having 10 or more and less than 20 is denoted as A) | 
CCCN1C(=O)CN(CC)C(=O)CNC(=O)[C@H]([C@@H](C)CC)NC(=O)[C@H](CC(C)C)N(C)C(=O)C[C@@H](C(=O)N2CCOCC2)N(C)C(=O)[C@H](C2CCCC2)N(C)C(=O)C2(CCCC2)NC(=O)[C@@H]2CCCN2C(=O)[C@H](CCc2ccc(C(F)(F)F)c(Cl)c2)NC(=O)CN(C)C(=O)[C@@H]1Cc1ccc(C(F)(F)F)cc1 [PP1968] ([NMeL]IG[NEtG][NPrPhe(4-CF3)][Sar][hPhe(3-Cl-4-CF3)]P[Ac5c][NMeGly(cPent)][NMeD]-Morpholide; lactam N-11) |  |  | NRAS/KRAS (ratio of KD value for NRAS to KD value for KRAS) ([1]; SPR): C (A compound having a KD ratio of 0.1 or more and less than 3 is denoted as C); HRAS/KRAS (ratio of KD value for HRAS to KD value for KRAS) ([2]; SPR): C (A compound having a KD ratio of 0.1 or more and less than 3 is denoted as C)
CCO[C@@H]1C[C@H]2C(=O)NC3(CC(C)(C)C3)C(=O)N(C)[C@@H](C(CC)CC)C(=O)N(C)[C@H](C(=O)N(C)C)CC(=O)N(C)[C@@H](CC3CC3)C(=O)N[C@@H]([C@@H](C)CC)C(=O)N(C)CC(=O)N(C)[C@H]3C/C=C\CCN(C3=O)[C@@H](CC3CCC(F)(F)CC3)C(=O)N(C)CC(=O)N[C@@H](CCc3cc(F)c(C(F)(F)F)c(F)c3)C(=O)N2C1 [PP2485] | A (a compound having 10 or more and less than 20 is denoted as A) | A (a compound having 10 or more and less than 20 is denoted as A) | 
